Test results: US12673073B2, “FasL-engineered biomaterials with immunomodulatory function” (University of Louisville Research Foundation, Inc., priority 2017, dated 2026)

Experiments:
[1] = test system: allogeneic (Balb/c) islets in streptozotocin-diabetic C57BL/6 mice; assay: Allogeneic islet transplantation under the kidney capsule of diabetic mice; format: in vivo, mouse; settings: rapamycin injections 0.2 mg/kg daily 15 doses, without SA-FasL-engineered microgels
Experimental: Islet transplantation. BALB/c pancreatic islets were isolated using Liberase TL as a digestive enzyme (Roche Life Science) and purified by a Ficoll density gradient as previously published. […] To biotinylate islets, overnight cultured islets were incubated in 5 μM EZ-Link Sulfo-NHS-LC-Biotin (Thermo Scientific) for 30 min at room temperature, washed extensively with PBS to remove unbound biotin solution. […] Approximately, 500 islets were co-transplanted with 1000 microgels into streptozotocin diabetic (200 mg/kg i.p., diabetes (>250 mg/dL) confirmed on two consecutive days) C57BL/6 or B6.129(Cg)-Foxp3^tm3(DTR/GFP)Ayr (C57BL/6.FoxP3^EGFP/DTR) recipients, where indicated. For Treg depletion, islet graft recipients were injected i.p. with diphtheria toxin (50 μg/kg body weight) and depletion was confirmed 3 days later in peripheral blood lymphocytes using flow cytometry. Selected groups were also treated i.p. with rapamycin at 0.2 mg/kg daily for 15 doses starting the day of transplantation. Unmodified BALB/c islets co-transplanted with unmodified PEG gels were used as controls. Animals were monitored for blood glucose and >250 mg/dL blood glucose levels for two consecutive daily measurements were considered rejected. […] Blood glucose levels were assessed by tail prick before injection and 10, 20, 30, 60, 90, 120 minutes after injection. […]

SA = SA (Streptomyces avidinii, UniProt P22629); settings: cited from earlier work
SA, sequence (P22629 25-183): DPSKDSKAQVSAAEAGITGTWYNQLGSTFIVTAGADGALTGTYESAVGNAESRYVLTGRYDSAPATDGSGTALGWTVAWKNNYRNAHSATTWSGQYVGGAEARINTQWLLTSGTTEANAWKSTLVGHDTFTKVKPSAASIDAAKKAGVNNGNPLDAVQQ

avidin = avidin (Gallus gallus, UniProt P02701); settings: cited from earlier work
avidin, sequence (P02701 25-152): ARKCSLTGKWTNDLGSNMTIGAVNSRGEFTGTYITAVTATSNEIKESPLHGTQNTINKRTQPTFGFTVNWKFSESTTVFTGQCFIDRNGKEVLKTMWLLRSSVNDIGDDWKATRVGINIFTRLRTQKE

Row | SMILES | median survival time (MST) of islet grafts [1] | affinity for SA (SA) | affinity for avidin (avidin)
1 | CO[C@H]1C[C@@H]2CC[C@@H](C)[C@@](O)(O2)C(=O)C(=O)N2CCCC[C@H]2C(=O)O[C@H]([C@H](C)C[C@@H]2CC[C@@H](O)[C@H](OC)C2)CC(=O)[C@H](C)/C=C(\C)[C@@H](O)[C@@H](OC)C(=O)[C@H](C)C[C@H](C)/C=C/C=C/C=C/1C [rapamycin] | 36 days |  | 
2 | O=C(O)CCCC[C@@H]1SC[C@@H]2NC(=O)N[C@@H]21 [biotin] |  | 10^13 M^−1 | 10^15 M^−1
